The numbers were not newly measured in patent US7122195B2, “Mutant mycobacteria for use in therapy” (priority 2000, dated 2006), which cites them from elsewhere.

The subject of this series is M. tuberculosis complex.

In the case of `Cc1ncc([N+](=O)[O-])n1CCO` [Metronidazole], the “Activity on anaerobic grown M. tuberculosis complex” value was “acts exclusively on anaerobic grown” and the “Effect on growth of aerobic grown cultures” value is “does not affect the growth”.
